US11780839B2, “Compounds for treating Huntington's disease” (PTC THERAPEUTICS, INC., priority 2018, dated 2023)

system: Endogenous Huntingtin Protein; assay: Endogenous Huntingtin Protein Assay (ELISA-based Meso Scale Discovery electrochemiluminescence); format: cell-based; conditions: MSD electrochemiluminescence, Table 1
Method in brief: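 Huntingtin was captured overnight at 4 °C on plates coated with 1 μg/mL MW1 (polyQ-expanded) or MAB2166 antibody and BSA-blocked. Detection used a rabbit monoclonal and then a SULFO-TAG goat anti-rabbit antibody (0.25 μg/mL, 1 h each, room temperature). Signal was read by electrochemiluminescence.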

Row | SMILES | IC50 [nM]
1 | CN(c1ncc(-c2ccc(-c3ccc(O)nn3)cc2O)nn1)C1CC(C)(C)NC(C)(C)C1 [Cpd 134, 6-(3-hydroxy-4-{3-[methyl(2,2,6,6-tetramethylpiperidin-4-yl)amino]-1,2,4-triazin-6-yl}phenyl)pyridazin-3-ol] | ≤ 100
2 | CN1CCC2(CC1)CN(c1ncc(-c3ccc(-c4ncco4)cc3O)nn1)C2 [Cpd 252, 2-[3-(7-methyl-2,7-diazaspiro[3.5]nonan-2-yl)-1,2,4-triazin-6-yl]-5-(1,3-oxazol-2-yl)phenol] | > 500
3 | Cc1ncc(-c2ccc(-c3cnc(N(C)C4CC(C)(C)NC(C)(C)C4)nn3)c(O)c2)o1 [Cpd 74, 5-(2-methyl-1,3-oxazol-5-yl)-2-{3-[methyl(2,2,6,6-tetramethylpiperidin-4-yl)amino]-1,2,4-triazin-6-yl}phenol] | ≤ 100
4 | CN(c1ncc(-c2ccc(-c3cnc4c(cnn4C)c3)cc2O)nn1)C1CC(C)(C)NC(C)(C)C1 [Cpd 176, 5-(1-methyl-1H-pyrazolo[3,4-b]pyridin-5-yl)-2-{3-[methyl(2,2,6,6-tetramethylpiperidin-4-yl)amino]-1,2,4-triazin-6-yl}phenol] | ≤ 100
5 | CC(C)(C)NC1CCCN(c2ncc(-c3ccc(-c4cn[nH]c4)cc3O)nn2)C1 (stereo not drawn) [Cpd 212, 2-{3-[3-(tert-butylamino)piperidin-1-yl]-1,2,4-triazin-6-yl}-5-(1H-pyrazol-4-yl)phenol] | 100 to 500
6 | Oc1cc(-c2cn[nH]c2)ccc1-c1cnc(N2CCC3(CCCNC3)CC2)nn1 [Cpd 180, 2-[3-(2,9-diazaspiro[5.5]undecan-9-yl)-1,2,4-triazin-6-yl]-5-(1H-pyrazol-4-yl)phenol] | 1000 to 3000
7 | CC(C)NC1CCN(c2ncc(-c3ccc(-n4cc(F)cn4)cc3O)nn2)C1 (stereo not drawn) [Cpd 338, 5-(4-fluoro-1H-pyrazol-1-yl)-2-(3-{3-[(propan-2-yl)amino]pyrrolidin-1-yl}-1,2,4-triazin-6-yl)phenol] | 100 to 500
8 | CC1(C)CC(Oc2cnc(-c3ccc(-c4cn[nH]c4)cc3O)nn2)CC(C)(C)N1 [Cpd 419, 5-(1H-pyrazol-4-yl)-2-{6-[(2,2,6,6-tetramethylpiperidin-4-yl)oxy]-1,2,4-triazin-3-yl}phenol] | ≤ 100
9 | Oc1cc(-c2cn[nH]c2)ccc1-c1cnc(N2CCNCC2)nn1 [Cpd 328, 2-[3-(piperazin-1-yl)-1,2,4-triazin-6-yl]-5-(1H-pyrazol-4-yl)phenol] | 100 to 500
10 | CN[C@H]1CCN(c2ncc(-c3ccc(-c4cn[nH]c4)cc3O)nn2)C1 [Cpd 114, 2-{3-[(3S)-3-(methylamino)pyrrolidin-l-yl]-1,2,4-triazin-6-yl}-5-(1H-pyrazol-4-yl)phenol] | ≤ 100
11 | CN(c1ncc(-c2ccc(-c3ccc4[nH]ncc4c3)cc2O)nn1)C1CC(C)(C)NC(C)(C)C1 [Cpd 97, 5-(1H-indazol-5-yl)-2-{3-[methyl(2,2,6,6-tetramethylpiperidin-4-yl)amino]-1,2,4-triazin-6-yl}phenol] | ≤ 100
12 | Cn1ncc2cc(-c3ccc(-c4cnc(N5CCC(NC(C)(C)C)C5)nn4)c(O)c3)ccc21 (stereo not drawn) [Cpd 208, 2-{3-[3-(tert-butylamino)pyrrolidin-l-yl]-1,2,4-triazin-6-yl}-5-(1-methyl-1H-indazol-5-yl)phenol] | 100 to 500
13 | CN1CCC2(CC1)CN(c1ncc(-c3ccc(-n4cnc(F)c4)cc3O)nn1)C2 [Cpd 230, 5-(4-fluoro-1H-imidazol-1-yl)-2-[3-(7-methyl-2,7-diazaspiro[3.5]nonan-2-yl)-1,2,4-triazin-6-yl]phenol] | > 500
14 | CC(C)NCC1CCN(c2ncc(-c3ccc(-c4cn[nH]c4)cc3O)nn2)C1 (stereo not drawn) [Cpd 361, 2-[3-(3-{[(propan-2-yl)amino]methyl}pyrrolidin-l-yl)-1,2,4-triazin-6-yl]-5-(1H-pyrazol-4-yl)phenol] | ≤ 100
15 | CN(c1ncc(-c2ccc(-c3ccccn3)cc2O)nn1)C1CC(C)(C)NC(C)(C)C1 [Cpd 71, 2-{3-[methyl(2,2,6,6-tetramethylpiperidin-4-yl)amino]-1,2,4-triazin-6-yl}-5-(pyridin-2-yl)phenol] | ≤ 100
